From patent publication US20190300885A1, “A NOVEL ROLE FOR TERMINAL RNA URIDYLATION AND RNA TURNOVER IN ONCOGENESIS” (Children's Medical Center Corporation, priority 2016, published 2019)
Entries after “also recorded” stand apart in the source; their conditions may differ.

Tests used:
[1] = system: HCT116 cells; assay: Growth curves of wild-type vs ZCCHC6 knockout HCT116 cells under increasing drug concentrations; type: cell-based, human; conditions: HCT116, CRISPR/Cas9 ZCCHC6 knockout (KO) vs GFP-sgRNA control (WT)
Source text: FIGS. 5A-5B. TUTase loss sensitizes cancer cells to disruption of RNA metabolism. […] Error bars indicate SEM (n=3); *P<0.05, **P<0.01.
Given the observed phenotypes, whether there are conditions that specifically sensitize cancer cells to TUTase loss was examined. In particular, since TUTases have been associated with RNA turnover, it was surmised that they may play an especially important role in the context of perturbed RNA metabolism. To address this hypothesis, small molecule agents that are known to cause DNA/RNA damage and thus impair RNA quality (doxorubicin, cisplatin, etoposide), as well as ones that inhibit nucleotide synthesis and thereby limit the pool of available nucleotides in the cell (5-fluorouracil and hydroxyurea) were selected, and wild-type and ZCCHC6 knockout HCT116 cells were treated with increasing concentrations of each agent (FIG. 5A). […] 5-FU has been specifically shown to target the RNA exosome complex, which may explain its differential activity from hydroxyurea in the experiments.

[2] = system: HCT116 cells; assay: Growth/viability of wild-type vs TUTase knockout HCT116 cells under increasing bortezomib concentrations; type: cell-based, human; conditions: HCT116, ZCCHC6 knockout vs WT
Source text: FIG. 16. TUTase loss has a downstream impact on protein turnover. Top, the relative rates of global mRNA translation as measured by the OP-Puromycin fluorescent assay are shown. siNC=negative control siRNA; siZ6=siZCCHC6. Error bars indicate SEM (n=3); *P<0.05. Bottom, growth curves of HCT116 cells after CRISPR/Cas9-mediated knockout using a ZCCHC6-targeting sgRNA (KO) or a GFP-targeting control sgRNA (WT) under treatment with different concentrations of bortezomib are shown.
Given that TUTases affect mRNA turnover, it was also surmised that they may have a downstream effect on protein turnover. To address this hypothesis, the global rate of translation in TUTase knockdown versus control HCT116 cells was measured using the OP-Puromycin method. […] In addition, we treated wild-type and TUTase knockout HCT116 cells with increasing concentrations of bortezomib, an inhibitor of the proteasome and thus protein decay (FIG. 16).

## N.N.[Cl][Pt][Cl] [cisplatin]
[1]
  differential dose-dependent growth response of ZCCHC6 knockout vs wild-type cells: only 5-fluorouracil (5-FU) yielded a differential dose-dependent response

## COc1cc([C@@H]2c3cc4c(cc3[C@@H](O[C@@H]3O[C@@H]5CO[C@@H](C)O[C@H]5[C@H](O)[C@H]3O)[C@H]3COC(=O)[C@H]23)OCO4)cc(OC)c1O [etoposide]
[1]
  differential dose-dependent growth response of ZCCHC6 knockout vs wild-type cells: only 5-fluorouracil (5-FU) yielded a differential dose-dependent response

## O=c1[nH]cc(F)c(=O)[nH]1 [5-fluorouracil]
[1]
  differential dose-dependent growth response of ZCCHC6 knockout vs wild-type cells: reproducibly stronger effect on the knockout cells; also recorded: significantly stronger inhibitory effect on cells depleted of TUTase

## COc1cccc2c1C(=O)c1c(O)c3c(c(O)c1C2=O)C[C@@](O)(C(=O)CO)C[C@@H]3O[C@H]1C[C@H](N)[C@H](O)[C@H](C)O1 [doxorubicin]
[1]
  differential dose-dependent growth response of ZCCHC6 knockout vs wild-type cells: only 5-fluorouracil (5-FU) yielded a differential dose-dependent response

## CC(C)C[C@H](NC(=O)[C@H](Cc1ccccc1)NC(=O)c1cnccn1)B(O)O [bortezomib]
[2]
  effect on cell viability in TUTase knockout vs wild-type cells: stronger in the TUTase knockout cells
